{
  "source": "patent US20250134889A1",
  "about": "“TARGETING IRE1 KINASE AND FMRP FOR PROPHYLAXIS, MANAGEMENT AND TREATMENT OF ATHEROSCLEROSIS” (CEDARS-SINAI MEDICAL CENTER, priority 2022, published 2025)",
  "key": {"IRE1 kinase activity": {"molecular_target": "T1, IRE1 kinase activity (Mus musculus, UniProt Q9EQY0)", "T1 construct": "from tissue; host or cells: thioglycolate-elicited peritoneal macrophages of C57BL/6 mice", "T1 sequence (Q9EQY0 21-977)": "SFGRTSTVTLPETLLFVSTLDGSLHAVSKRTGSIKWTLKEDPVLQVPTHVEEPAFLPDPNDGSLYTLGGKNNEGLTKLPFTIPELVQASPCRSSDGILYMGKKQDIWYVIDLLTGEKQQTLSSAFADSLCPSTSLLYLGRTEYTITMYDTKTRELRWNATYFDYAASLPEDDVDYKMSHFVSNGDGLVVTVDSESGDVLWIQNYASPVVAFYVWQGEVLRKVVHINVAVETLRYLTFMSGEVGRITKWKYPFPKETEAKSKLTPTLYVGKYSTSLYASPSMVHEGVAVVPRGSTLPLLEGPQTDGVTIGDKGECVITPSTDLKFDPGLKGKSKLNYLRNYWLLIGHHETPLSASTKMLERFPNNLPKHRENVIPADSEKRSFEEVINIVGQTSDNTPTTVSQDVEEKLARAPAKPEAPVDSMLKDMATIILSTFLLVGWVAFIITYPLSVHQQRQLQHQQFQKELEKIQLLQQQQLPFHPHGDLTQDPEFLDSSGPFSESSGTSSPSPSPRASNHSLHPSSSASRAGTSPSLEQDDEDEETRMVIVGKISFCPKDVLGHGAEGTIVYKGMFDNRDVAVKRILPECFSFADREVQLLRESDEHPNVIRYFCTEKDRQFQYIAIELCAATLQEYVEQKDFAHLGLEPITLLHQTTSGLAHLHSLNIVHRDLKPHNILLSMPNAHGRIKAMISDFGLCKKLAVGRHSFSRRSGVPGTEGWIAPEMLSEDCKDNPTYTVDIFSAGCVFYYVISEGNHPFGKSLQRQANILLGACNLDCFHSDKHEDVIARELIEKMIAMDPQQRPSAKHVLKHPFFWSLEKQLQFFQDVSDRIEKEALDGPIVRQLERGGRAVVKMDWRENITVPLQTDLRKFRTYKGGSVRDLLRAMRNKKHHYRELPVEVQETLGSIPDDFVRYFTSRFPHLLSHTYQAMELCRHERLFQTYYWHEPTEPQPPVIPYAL", "test": "IRE1 and FMRP phosphorylation in peritoneal macrophages of TM-injected mice (western blot)", "type": "in vivo", "details": "C57BL/6, AMG-18 30 mg/kg 8 hours, TM 1 mg/kg", "experimental": "FIGS. 1A-1K depict FMRP is a new inositol-requiring enzyme-1 (IRE1) kinase substrate. A representative blot is shown from at least n=3 independent experiments. Data are mean±SEM. Unpaired 1-test with Welch's correction or paired 1-test. * P≤0.05, ** P≤0.01, *** P≤0.001. • 1A. STING analysis of published IRE1 interactome proteins in relation to FMRP (Acosta-Alvear et al., 2018). • 1B. HEK293T cells were co-transfected with IRE1 and FMRP plasmids and stimulated with TG (600 nM) or TM (1 mg/ml) for 2 hours. Protein lysates were immunoprecipitated (IP) with anti-IRE1 or IgG (control) antibodies and analyzed by Western blotting using specific antibodies for FMRP and IRE1 (n=3). • 1C. RAW 264.7 mouse macrophages were treated with either oxLDL (50 μg/ml) or TG (300 nM) for 6 hours. Protein lysates were treated with λ Phosphatase (PPase) for 30 minutes and analyzed by western blotting using specific antibodies for pFMRP, FMRP, pIRE1, IRE1 and β-Actin. pFMRP/FMRP fold induction is depicted above the blots (n=6). • 1D. […] Protein lysates were analyzed by western blotting using specific antibodies for pFMRP, FMRP, pIRE1, IRE1 and β-Actin. pFMRP/FMRP-fold induction is depicted above the blots (n=5). • 1E. […] Protein lysates were analyzed by western blotting using specific antibodies for pFMRP, FMRP, pIRE1, IRE1 and β-Actin. pFMRP/FMRP fold induction is depicted above the blots (n=4). • 1F. […]"}, "BMDMs": {"tested_on": "BMDMs", "test": "Apoptosis detection by flow cytometry (PI)", "type": "cell-based, mouse", "details": "AMG-18 10 μM 1 hour pre-treatment, PA 12 hours", "excerpt": "FIGS. 5K-5T depict: (Data are mean #SEM; Mann Whitney U test. * P≤0.05, ** P≤0.01, *** P≤0.001) • 5K. The ratio of mouse weight at the beginning of the experiment over the weight at the end of the experiment in FIG. 5A (n=12-13); and plasma measurements for glucose (n=12-13), cholesterol (n=12-13) and lipoproteins (n=4), respectively, from mice in FIG. 5A. • 5L. Abundance of B cells, T cells and monocytes in the peripheral blood as % of total CD45+ cells from the Fmr1^+/+ and Fmr1^−/− mice in FIG. 5A (n=12-13) . • 5M. Macrophage area was calculated from MOMA-2 (red)-stained aortic root sections as % of MOMA2^+ stained area to total plaque area (n=8; Scale bar=100 μm). • 5N. Apoptosis was calculated from the number of TUNEL^+ cells (green) in the MOMA-2-stained (red) plaque area (n=8; Scale bar=100 μm). • 5O. Fmr1^+/+ and Fmr1^−/− BMDMs or AMG-18 pre-treated cells (10 μM, 1 hour) were treated with PA ([…]) treatment for 12 hours and then stained with Propidium iodide (PI) (n=5). • 5P. % Smooth muscle actin (α-SMA) was calculated from aortic root sections stained with a-SMA (green) as % α-SMA^+ area to the total plaque area (n=8, Scale bar 100 μm). • 5Q. % collagen area was calculated from Masson's Trichrome staining as the percentage of collagen (blue) area in total plaque area (n=8; Scale bar=100 μm). • 5R. […]"}},
  "data": [
    {"smiles": "Cc1ccc2c(NS(=O)(=O)c3ccccc3Cl)cccc2c1Oc1ncccc1-c1ccnc(N[C@H]2CCCNC2)n1", "note": "[AMG-18]", "values": [
      {"measurement": "FMRP phosphorylation in PM", "setting": "IRE1 kinase activity", "result": "reduced"},
      {"measurement": "IRE1 kinase activity (pIRE1) in PM", "setting": "IRE1 kinase activity", "result": "inhibited"},
      {"measurement": "apoptosis (PI staining)", "setting": "BMDMs", "result": "no significant change"}
    ]}
  ]
}
